Values of other authors as cited in PMC7606817 (Journal of controlled release : official journal of the …, 2020).

Conditions: mice

[C-]#[O+] [CO, Carbon monoxide]
CO elimination half-life: 20 min
